How the values were obtained:
Type in all cases: in vivo
[1] = system: lambsquarters (Chenopodium album); assay: Test C greenhouse herbicide test, pre- and postemergence
Method in brief: (§1)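 Percent-control ratings (0 none, 100 complete) came from visual comparison with controls held alongside in the greenhouse for 13–15 d. Treatments covered soil application at sowing and foliar application to young plants 2–18 cm tall.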

[2] = system: crabgrass, large (large crabgrass, Digitaria sanguinalis); assay: as above
Method in brief: as §1

[3] = system: morningglory (Ipomoea coccinea); assay: as above
Method in brief: as §1

[4] = system: corn (Zea mays); assay: as above
Method in brief: as §1

[5] = system: foxtail, giant (giant foxtail, Setaria faberii); assay: as above
Method in brief: as §1

[6] = system: johnsongrass (Sorghum halepense); assay: as above
Method in brief: as §1

[7] = system: oilseed rape (Brassica napus); assay: as above
Method in brief: as §1

[8] = system: wheat (winter wheat, Triticum aestivum); assay: as above
Method in brief: as §1

[9] = system: waterhemp (common waterhemp, Amaranthus rudis); assay: as above
Method in brief: as §1

[10] = system: barnyardgrass (Echinochloa crus-galli); assay: Test A greenhouse herbicide test, pre- and postemergence
Method in brief: (§2)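 Visual injury ratings, 0 (no effect) to 100 (complete control), versus untreated plants after roughly 10 d in a greenhouse. Compounds, formulated in a surfactant-containing non-phytotoxic solvent, were sprayed on loam–sand soil after sowing (pre) or on one- to two-leaf plants 2–10 cm tall (post).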

[11] = system: kochia (Kochia scoparia); assay: as above
Method in brief: as §2

[12] = Postemergence, 31 g ai/ha, scale 0 to 100 (0 no effect, 100 complete control)
[13] = Postemergence, 125 g ai/ha, scale 0 to 100, 0 is no effect, 100 is complete control
[14] = Postemergence, 250 g ai/ha, scale 0 to 100, 0 no effect, 100 complete control, 13 to 15 d
[15] = Preemergence, 31 g ai/ha, scale 0 to 100, 0 is no effect, 100 is complete control
[16] = Preemergence, 62 g ai/ha, scale 0 to 100, 0 is no effect, 100 is complete control
[17] = Preemergence, 125 g ai/ha, scale 0 to 100, 0 is no effect, 100 is complete control
[18] = Preemergence, 250 g ai/ha, scale 0 to 100, 0 no effect, 100 complete control
[19] = postemergence, 62 g ai/ha, scale 0 to 100, 0 no effect, 100 complete control
[20] = Postemergence, 125 g ai/ha, 0 to 100 scale where 0 is no effect and 100 is complete control
[21] = Postemergence, 500 g ai/ha, visual rating after approx. 10 d, 0 to 100 scale (0 no effect, 100 complete control)
[22] = Preemergence, 125 g ai/ha, 0 to 100 scale where 0 is no effect and 100 is complete control
[23] = Preemergence, 500 g ai/ha, 0 to 100 scale where 0 is no effect and 100 is complete control
[24] = Postemergence, 31 g ai/ha, 0 to 100 scale (0 no effect, 100 complete control)
[25] = Postemergence, 500 g ai/ha, 0 to 100 scale, 0 is no effect, 100 is complete control

In the case of `CCC(=O)Oc1c(C)nn(C)c(=O)c1-c1ccc(F)c2ccccc12` [Compound 113], the “Plant response rating, Lambsquarters” value [1, 12] was 98, the “Plant response rating, Lambsquarters” value [1, 13] was 100 and the “Plant response rating, Lambsquarters” value [1, 14] was 100. The “Plant response rating, Lambsquarters” value [1, 15] was 90, the “Plant response rating, Lambsquarters” value [1, 16] was 85 and the “Plant response rating, Lambsquarters” value [1, 17] was 90. The “Lambsquarters plant response rating” value [1, 18] was 100, the “Plant response rating, Crabgrass, Large” value [2, 12] was 5 and the “Plant response rating, Crabgrass, Large” value [2, 13] was 25. For the same compound, the “Plant response rating, Crabgrass, Large” value [2, 14] was 70, the “Plant response rating, Crabgrass, Large” value [2, 15] was 0 and the “Plant response rating, Crabgrass, Large” value [2, 16] was 35. For the same compound, the “Plant response rating, Crabgrass, Large” value [2, 17] was 75, the “Crabgrass, Large plant response rating” value [2, 18] was 90 and the “Crabgrass, Large plant response rating” value [2, 19] was 15. For the same compound, the “Plant response rating, Morningglory” value [3, 12] was 98, the “Plant response rating, Morningglory” value [3, 13] was 100 and the “Plant response rating, Morningglory” value [3, 14] was 100. For the same compound, the “Plant response rating, Morningglory” value [3, 15] was 85, the “Plant response rating, Morningglory” value [3, 16] was 95 and the “Plant response rating, Morningglory” value [3, 17] was 98. For the same compound, the “Morningglory plant response rating” value [3, 18] was 100, the “Plant response rating, Corn” value [4, 12] was 5 and the “Plant response rating, Corn” value [4, 13] was 10. The “Plant response rating, Corn” value [4, 14] was 15, the “Plant response rating, Corn” value [4, 15] was 0 and the “Plant response rating, Corn” value [4, 16] was 0. The “Plant response rating, Corn” value [4, 17] was 20, the “Corn plant response rating” value [4, 18] was 35 and the “Corn plant response rating” value [4, 19] was 10. The “Plant response rating, Foxtail, Giant” value [5, 12] was 20, the “Plant response rating, Foxtail, Giant” value [5, 13] was 30 and the “Plant response rating, Foxtail, Giant” value [5, 14] was 70. For the same compound, the “Plant response rating, Johnsongrass” value [6, 12] was 0, the “Plant response rating, Johnsongrass” value [6, 13] was 10 and the “Plant response rating, Johnsongrass” value [6, 14] was 20. The “Plant response rating, Johnsongrass” value [6, 15] was 0, the “Plant response rating, Johnsongrass” value [6, 16] was 10 and the “Plant response rating, Johnsongrass” value [6, 17] was 20. The “Johnsongrass plant response rating” value [6, 18] was 30, the “Plant response rating, Oilseed Rape” value [7, 12] was 0 and the “Plant response rating, Oilseed Rape” value [7, 13] was 0. For the same compound, the “Plant response rating, Oilseed Rape” value [7, 14] was 0, the “Plant response rating, Oilseed Rape” value [7, 15] was 0 and the “Plant response rating, Oilseed Rape” value [7, 16] was 0. The “Plant response rating, Oilseed Rape” value [7, 17] was 60, the “Oilseed Rape plant response rating” value [7, 18] was 90 and the “Plant response rating, Wheat” value [8, 12] was 5. The “Plant response rating, Wheat” value [8, 13] was 5, the “Plant response rating, Wheat” value [8, 14] was 15 and the “Plant response rating, Wheat” value [8, 15] was 0. The “Plant response rating, Wheat” value [8, 16] was 30, the “Plant response rating, Wheat” value [8, 17] was 35 and the “Wheat plant response rating” value [8, 18] was 50. The “Plant response rating, Waterhemp” value [9, 12] was 85, the “Plant response rating, Waterhemp” value [9, 13] was 90 and the “Plant response rating, Waterhemp” value [9, 14] was 100. For the same compound, the “Plant response rating, Waterhemp” value [9, 15] was 85, the “Plant response rating, Waterhemp” value [9, 16] was 100 and the “Plant response rating, Waterhemp” value [9, 17] was 98. For the same compound, the “Waterhemp plant response rating” value [9, 18] was 98, the “Plant response rating, Barnyardgrass” value [10, 20] was 40 and the “Plant response rating, Barnyardgrass” value [10, 21] was 90. The “Barnyardgrass plant response rating” value [10, 22] was 70, the “Plant response rating, Barnyardgrass” value [10, 23] was 100 and the “Plant response rating, Kochia” value [11, 20] was 100. For the same compound, the “Plant response rating, Kochia” value [11, 21] was 100, the “Kochia plant response rating” value [11, 22] was 90 and the “Plant response rating, Kochia” value [11, 23] was 100.
For `CCC(=O)Oc1c(C)nn(C)c(=O)c1-c1c(C)ccc2ccccc12` [Compound 78], the “Lambsquarters plant response rating” value [1, 24] was 40, the “Plant response rating, Lambsquarters” value [1, 13] was 75 and the “Plant response rating, Lambsquarters” value [1, 14] was 100. The “Lambsquarters plant response rating” value [1, 19] was 70, the “Crabgrass, Large plant response rating” value [2, 24] was 5 and the “Plant response rating, Crabgrass, Large” value [2, 13] was 10. For the same compound, the “Plant response rating, Crabgrass, Large” value [2, 14] was 10, the “Crabgrass, Large plant response rating” value [2, 19] was 5 and the “Morningglory plant response rating” value [3, 24] was 20. For the same compound, the “Plant response rating, Morningglory” value [3, 13] was 65, the “Plant response rating, Morningglory” value [3, 14] was 65 and the “Morningglory plant response rating” value [3, 19] was 40. For the same compound, the “Corn plant response rating” value [4, 24] was 0, the “Plant response rating, Corn” value [4, 13] was 10 and the “Plant response rating, Corn” value [4, 14] was 0. The “Corn plant response rating” value [4, 19] was 0, the “Foxtail, Giant plant response rating” value [5, 24] was 15 and the “Plant response rating, Foxtail, Giant” value [5, 13] was 20. The “Plant response rating, Foxtail, Giant” value [5, 14] was 25, the “Foxtail, Giant plant response rating” value [5, 19] was 5 and the “Johnsongrass plant response rating” value [6, 24] was 5. The “Plant response rating, Johnsongrass” value [6, 13] was 5, the “Plant response rating, Johnsongrass” value [6, 14] was 5 and the “Johnsongrass plant response rating” value [6, 19] was 5. The “Oilseed Rape plant response rating” value [7, 24] was 0, the “Plant response rating, Oilseed Rape” value [7, 13] was 0 and the “Plant response rating, Oilseed Rape” value [7, 14] was 5. For the same compound, the “Oilseed Rape plant response rating” value [7, 19] was 0, the “Wheat plant response rating” value [8, 24] was 0 and the “Plant response rating, Wheat” value [8, 13] was 5. For the same compound, the “Plant response rating, Wheat” value [8, 14] was 10, the “Wheat plant response rating” value [8, 19] was 5 and the “Waterhemp plant response rating” value [9, 24] was 75. The “Plant response rating, Waterhemp” value [9, 13] was 80, the “Plant response rating, Waterhemp” value [9, 14] was 90 and the “Waterhemp plant response rating” value [9, 19] was 90. The “Plant response rating, Barnyardgrass” value [10, 20] was 20, the “Barnyardgrass plant response rating” value [10, 25] was 30 and the “Barnyardgrass plant response rating” value [10, 22] was 0. For the same compound, the “Plant response rating, Barnyardgrass” value ([10]; Preemergence, 500 g ai/ha, 0 to 100 scale, 0 no effect, 100 complete control) was 70, the “Plant response rating, Kochia” value [11, 20] was 50 and the “Kochia plant response rating” value [11, 25] was 90. The “Kochia plant response rating” value [11, 22] was 20 and the “Plant response rating, Kochia” value [11, 23] was 100.
